tested on: rabbit skeletal myofibrils (fast skeletal myofibrils); experiment: Activation of fast skeletal myofibrils (PUMA assay, AC1.4); assay type: biochemical; details: calcium at pCa25, AC1.4 = concentration at which the compound increased the enzymatic activity
Summary of the method: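 In 12 mM PIPES pH 6.8 with 2 mM MgCl2 and 1 mM DTT, Triton-washed rabbit skeletal myofibrils were run at the pCa25 calcium level. Myosin-made ADP was recycled through a PK/LDH coupled system; NADH loss read at 340 nm.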

| Structure (SMILES) | AC1.4 [µM] |
| --- | --- |
| CC[C@H](C)[C@H]1C(=O)Nc2ccc(F)cc2CN1C(=O)N[C@H]1CCN(CCO)C1 [Compound 349, (S)-3-((S)-sec-butyl)-7-fluoro-N-((S)-1-(2-hydroxyethyl)pyrrolidin-3-yl)-2-oxo-1,2,3,5-tetrahydro-4H-benzo[e][1,4]diazepine-4-carboxamide] | 1.57 |
| CC[C@H](C)[C@H]1C(=O)Nc2ccc(F)cc2CN1C(=O)N[C@H]1CCN(C)C1 [Compound 350, (S)-3-((S)-sec-butyl)-7-fluoro-N-((S)-1-methylpyrrolidin-3-yl)-2-oxo-1,2,3,5-tetrahydro-4H-benzo[e][1,4]diazepine-4-carboxamide] | 1.11 |
| CC[C@H](C)[C@H]1C(=O)Nc2ccc(F)cc2CN1C(=O)NC1CCN(CCO)CC1 [Compound 351, (S)-3-((S)-sec-butyl)-7-fluoro-N-(1-(2-hydroxyethyl)piperidin-4-yl)-2-oxo-1,2,3,5-tetrahydro-4H-benzo[e][1,4]diazepine-4-carboxamide] | 1.17 |
| CC[C@H](C)[C@H]1C(=O)Nc2ccc(F)cc2CN1C(=O)N[C@H]1CC[C@H](O)CC1 [Compound 352, (S)-3-((S)-sec-butyl)-7-fluoro-N-((1r,4S)-4-hydroxycyclohexyl)-2-oxo-1,2,3,5-tetrahydro-4H-benzo[e][1,4]diazepine-4-carboxamide] | 0.73 |
| CC[C@H](C)[C@H]1C(=O)Nc2ccc(F)cc2CN1C(=O)N[C@H]1CC[C@H](O)C1 [Compound 353, (S)-3-((S)-sec-butyl)-7-fluoro-N-((1S,3S)-3-hydroxycyclopentyl)-2-oxo-1,2,3,5-tetrahydro-4H-benzo[e][1,4]diazepine-4-carboxamide] | 1.76 |
| CC[C@H](C)[C@H]1C(=O)Nc2ccc(F)cc2CN1C(=O)N[C@H]1C[C@H](O)C1 [Compound 354, (S)-3-((S)-sec-butyl)-7-fluoro-N-((1r,3S)-3-hydroxycyclobutyl)-2-oxo-1,2,3,5-tetrahydro-4H-benzo[e][1,4]diazepine-4-carboxamide] | 1.59 |
| CC[C@H](C)[C@H]1C(=O)Nc2ccc(F)cc2CN1C(=O)N[C@H]1C[C@@H](O)C1 [Compound 355, (S)-3-((S)-sec-butyl)-7-fluoro-N-((1s,3R)-3-hydroxycyclobutyl)-2-oxo-1,2,3,5-tetrahydro-4H-benzo[e][1,4]diazepine-4-carboxamide] | 1.49 |
| CC[C@H](C)[C@H]1C(=O)Nc2cc(F)ccc2CN1C(=O)NC1CCN(CCO)CC1 [Compound 356, (S)-3-((S)-sec-butyl)-8-fluoro-N-(1-(2-hydroxyethyl)piperidin-4-yl)-2-oxo-1,2,3,5-tetrahydro-4H-benzo[e][1,4]diazepine-4-carboxamide] | 0.24 |
| CC[C@H](C)[C@H]1C(=O)Nc2cc(F)ccc2CN1C(=O)N[C@H]1CCN(C)C1 [Compound 358, (S)-3-((S)-sec-butyl)-8-fluoro-N-((S)-1-methylpyrrolidin-3-yl)-2-oxo-1,2,3,5-tetrahydro-4H-benzo[e][1,4]diazepine-4-carboxamide] | 0.40 |
| CC[C@H](C)[C@H]1C(=O)Nc2cc(F)ccc2CN1C(=O)N1CC[C@H](O)C1 [Compound 359, (S)-3-((S)-sec-butyl)-8-fluoro-4-((S)-3-hydroxypyrrolidine-1-carbonyl)-1,3,4,5-tetrahydro-2H-benzo[e][1,4]diazepin-2-one] | 0.77 |
| CC[C@H](C)[C@H]1C(=O)Nc2cc(F)ccc2CN1C(=O)NC1CCN(C2COC2)CC1 [Compound 360, (S)-3-((S)-sec-butyl)-8-fluoro-N-(1-(oxetan-3-yl)piperidin-4-yl)-2-oxo-1,2,3,5-tetrahydro-4H-benzo[e][1,4]diazepine-4-carboxamide] | 0.37 |
| CC[C@H](C)[C@H]1C(=O)Nc2cncc(F)c2CN1C(C)=O [Compound 361, (S)-4-acetyl-3-((S)-sec-butyl)-6-fluoro-1,3,4,5-tetrahydro-2H-pyrido[3,4-e][1,4]diazepin-2-one] | 1.62 |
| CC[C@H](C)[C@H]1C(=O)Nc2cncc(F)c2CN1C(=O)CO [Compound 362, (S)-3-((S)-sec-butyl)-6-fluoro-4-(2-hydroxyacetyl)-1,3,4,5-tetrahydro-2H-pyrido[3,4-e][1,4]diazepin-2-one] | 1.68 |
| CC[C@H](C)[C@H]1C(=O)Nc2cncc(F)c2CN1C(=O)COC [Compound 363, (S)-3-((S)-sec-butyl)-6-fluoro-4-(2-methoxyacetyl)-1,3,4,5-tetrahydro-2H-pyrido[3,4-e][1,4]diazepin-2-one] | 2.60 |
| CC[C@H](C)[C@H]1C(=O)Nc2cncc(F)c2CN1C(=O)OC [Compound 364, methyl (S)-3-((S)-sec-butyl)-6-fluoro-2-oxo-1,2,3,5-tetrahydro-4H-pyrido[3,4-e][1,4]diazepine-4-carboxylate] | 3.31 |
| CC[C@H](C)[C@H]1C(=O)Nc2cncc(F)c2CN1/C(N)=N/C#N [Compound 365, (S,E)-3-((S)-sec-butyl)-N′-cyano-6-fluoro-2-oxo-1,2,3,5-tetrahydro-4H-pyrido[3,4-e][1,4]diazepine-4-carboximidamide] | 0.19 |

| Structure (SMILES) | AC1.4 [µM] |
| --- | --- |
| CC[C@H](C)[C@H]1C(=O)Nc2cncc(F)c2CN1c1c(N)c(=O)c1=O [Compound 366, 3-amino-4-((S)-3-((S)-sec-butyl)-6-fluoro-2-oxo-1,2,3,5-tetrahydro-4H-pyrido[3,4-e][1,4]diazepin-4-yl)cyclobut-3-ene-1,2-dione] | 0.21 |
| CC[C@H](C)[C@H]1C(=O)Nc2cncc(F)c2CN1C(=O)NC [Compound 367, (S)-3-((S)-sec-butyl)-6-fluoro-N-methyl-2-oxo-1,2,3,5-tetrahydro-4H-pyrido[3,4-e][1,4]diazepine-4-carboxamide] | 1.05 |
| CC[C@H](C)[C@H]1C(=O)Nc2cncc(F)c2CN1C(=O)Nc1ccn(C)n1 [Compound 368, (S)-3-((S)-sec-butyl)-6-fluoro-N-(1-methyl-1H-pyrazol-3-yl)-2-oxo-1,2,3,5-tetrahydro-4H-pyrido[3,4-e][1,4]diazepine-4-carboxamide] | 0.41 |
| CC[C@H](C)[C@H]1C(=O)Nc2cncc(F)c2CN1C(=O)Nc1cc[nH]n1 [Compound 369] | 0.24 |
| CC[C@H](C)[C@H]1C(=O)Nc2cncc(F)c2CN1C(=O)N1CC(O)C1 [Compound 370, (S)-3-((S)-sec-butyl)-6-fluoro-4-(3-hydroxyazetidine-1-carbonyl)-1,3,4,5-tetrahydro-2H-pyrido[3,4-e][1,4]diazepin-2-one] | 0.88 |
| CC[C@H](C)[C@H]1C(=O)Nc2cncc(F)c2CN1C(=O)COCc1ccccc1 [Compound 371, (S)-4-(2-(benzyloxy)acetyl)-3-((S)-sec-butyl)-6-fluoro-1,3,4,5-tetrahydro-2H-pyrido[3,4-e][1,4]diazepin-2-one] | 0.50 |
| CC[C@H](C)[C@H]1C(=O)Nc2ccccc2CN1c1c(N2CCOCC2)c(=O)c1=O [Compound 372, 3-((S)-3-((S)-sec-butyl)-2-oxo-1,2,3,5-tetrahydro-4H-benzo[e][1,4]diazepin-4-yl)-4-morpholinocyclobut-3-ene-1,2-dione] | 0.18 |
| CC[C@H](C)[C@H]1C(=O)Nc2cnccc2CN1C(=O)c1cnn(C)c1 [Compound 373, (S)-3-((S)-sec-butyl)-4-(1-methyl-1H-pyrazole-4-carbonyl)-1,3,4,5-tetrahydro-2H-pyrido[3,4-e][1,4]diazepin-2-one] | 0.66 |
| CC[C@H](C)[C@H]1C(=O)Nc2cnccc2CN1c1c(NCCO)c(=O)c1=O [Compound 374, 3-((S)-3-((S)-sec-butyl)-2-oxo-1,2,3,5-tetrahydro-4H-pyrido[3,4-e][1,4]diazepin-4-yl)-4-((2-hydroxyethyl)amino)cyclobut-3-ene-1,2-dione] | 0.42 |
| CC[C@H](C)[C@H]1C(=O)Nc2cnccc2CN1c1c(N2CC(O)C2)c(=O)c1=O [Compound 375, 3-((S)-3-((S)-sec-butyl)-2-oxo-1,2,3,5-tetrahydro-4H-pyrido[3,4-e][1,4]diazepin-4-yl)-4-(3-hydroxyazetidin-1-yl)cyclobut-3-ene-1,2-dione] | 0.26 |
| CC[C@H](C)[C@H]1C(=O)Nc2cnccc2CN1c1c(NC)c(=O)c1=O [Compound 376, 3-((S)-3-((S)-sec-butyl)-2-oxo-1,2,3,5-tetrahydro-4H-pyrido[3,4-e][1,4]diazepin-4-yl)-4-(methylamino)cyclobut-3-ene-1,2-dione] | 0.18 |
| CC[C@H](C)[C@H]1C(=O)Nc2cnccc2CN1c1c(N(C)C)c(=O)c1=O [Compound 377, 3-((S)-3-((S)-sec-butyl)-2-oxo-1,2,3,5-tetrahydro-4H-pyrido[3,4-e][1,4]diazepin-4-yl)-4-(dimethylamino)cyclobut-3-ene-1,2-dione] | 0.29 |
| CC[C@H](C)[C@H]1C(=O)Nc2cnccc2CN1c1c(N)c(=O)c1=O [Compound 378, 3-amino-4-((S)-3-((S)-sec-butyl)-2-oxo-1,2,3,5-tetrahydro-4H-pyrido[3,4-e][1,4]diazepin-4-yl)cyclobut-3-ene-1,2-dione] | 0.15 |
| CC[C@H](C)[C@H]1C(=O)Nc2cnccc2CN1C(=O)N1CC(O)C1 [Compound 379, (S)-3-((S)-sec-butyl)-4-(3-hydroxyazetidine-1-carbonyl)-1,3,4,5-tetrahydro-2H-pyrido[3,4-e][1,4]diazepin-2-one] | 0.92 |
| CC[C@H](C)[C@H]1C(=O)Nc2cnccc2N1/C(=N/C#N)Oc1ccccc1 [Compound 380, phenyl (S,Z)-2-((S)-sec-butyl)-N-cyano-3-oxo-3,4-dihydropyrido[3,4-b]pyrazine-1(2H)-carbimidate] | 1.25 |
| CC[C@H](C)[C@H]1C(=O)Nc2cnccc2CN1c1c(NCCOC)c(=O)c1=O [Compound 381, 3-((S)-3-((S)-sec-butyl)-2-oxo-1,2,3,5-tetrahydro-4H-pyrido[3,4-e][1,4]diazepin-4-yl)-4-((2-methoxyethyl)amino)cyclobut-3-ene-1,2-dione] | 0.48 |
